Data from patent US11464767B2, “Prodrugs of phenolic TRPV1 agonists in combination with local anesthetics and vasoconstrictors for improved local anesthesia” (Concentric Analgesics, Inc., priority 2016, dated 2022).

Tests used:
[1] = system: Brennan Model of Post-Incisional Pain in rat; assay: Brennan Model of Post-Incisional Pain in rat, guarding scores (Example 4); format: in vivo, male Sprague Dawley rats
Procedure: This Example compares the pharmacodynamics of capsaicin from either capsaicin or from Compound 1 (with or without co-administered bupivacaine or ropivacaine) administered via intraplantar infiltration to rats.
Intraplantar infiltration dosing: Five groups of eight male Sprague Dawley rats (vendor was Charles River Laboratories) each were to receive a single subcutaneous dose of one of the following test articles: • Group 1. Compound 1, 162 μg in 0.25% bupivacaine solution (175 μL) • Group 2. Compound 1, 162 μg in 0.25% ropivacaine solution (175 μL) • Group 3. Compound 1, 162 μg in 0.125% ropivacaine solution (175 μL) • Group 4. 0.25% Ropivacaine solution (175 μL) • Group 5. Vehicle control (0.9% Saline; 175 μL)
The injection volume was 175 μL per rat. Vehicle and test articles will be administered by wound intraplantar infiltration (150 μL) immediately prior to incision, and injection into flexor muscle prior to closure (25 μL).
Surgery: Animals were anesthetized with 1.8 to 4% isofluorane (delivered via a nose cone). Study drug ([…]) was infiltrated (by intraplantar injection) immediately prior to incision. A 1 cm long incision of skin, fascia and muscle will be made in the plantar aspect (heel, midfoot or distal pad area) of the right hind paw starting 0.5 cm from the proximal edge of the heel and extending towards the toes. The flexor muscle was elevated and incised longitudinally via blunt dissection with the muscle origin and insertion remaining intact. After hemostasis with gentle pressure, study drug (25 μL) was injected into the flexor muscle prior to closure, and the incision was closed with one or two sutures (5-0 silk/nylon ophthalmic suture on a taper TF needle or equivalent). […]
Guarding Behaviors: The rats were placed in Plexiglas® squares on a stainless steel wire mesh floor thirty minutes before guarding scores are to be measured for acclimation. Guarding scores were measured over 1 hour time periods for the incised paw. The animals were observed closely during a 60 second period every 5 minutes for 1 hour and scored as follows. […]

in vivo = assay: in vivo; set-up: species or system male Sprague-Dawley rats; conditions: rat, sc; for Tmax: Tmax of capsaicin
Description: This Example compares the pharmacokinetics of capsaicin from either capsaicin or from Compound 1 (with or without co-administered bupivacaine or bupivacaine with epinephrine) administered subcutaneously (SC) to rats. Additionally, this example compares the pharmacokinetics of cyclic urea metabolite (Compound 2) from Compound 1 (with or without co-administered bupivacaine or bupivacaine with epinephrine).
SC dosing: Four groups of six male Sprague-Dawley rats (vendor was Charles River Laboratories) each were to receive a single subcutaneous dose (4 mL/kg) of one of the following test articles:
Group 1) 1.00 mg/kg capsaicin in 25% PEG300/sterile water for injection (♦);
Group 2) 1.62 mg/kg Compound 1.HCl in sterile water for injection (□);
Group 3) 1.62 mg/kg Compound 1.HCl in 0.25% bupivacaine hydrochloride for injection (Δ);
Group 4) 1.62 mg/kg Compound 1.HCl in 0.25% bupivacaine hydrochloride plus epinephrine, (1:200,000 for injection) (*).
The dose of capsaicin and Compound 1 were selected to provide approximately equimolar amounts.
The injection volume was 4 mL/kg. (Note: The actual dose of capsaicin for Group 1 was 0.74 mg/kg, or 74% of the intended dose of 1 mg/kg. Dose data represents dose correction of Group 1 to equimolar dosages with Compound 1 from groups 2, 3, 4). The actual doses of Compound 1 HCl and bupivacaine for Groups 2, 3, and 4 were within 10% of the intended doses.
Blood samples (0.3 mL) were collected from the jugular vein into tubes containing K2EDTA as anticoagulant and 0.3 ml of 2% formic acid (resulting in a final concentration of 1% formic acid) as a quenching agent to stop the cyclization of Compound 1, which releases capsaicin and cyclic urea Compound 2. The samples were collected from each rat at 2, 10, and 30 minutes, and 1, 2, 4, 8, and 24 hours post-dose.
Each blood sample was mixed by inversion and placed on dry ice. They were not processed for plasma. The blood samples were kept frozen at −70° C. until further processing and analysis was performed. All blood samples were collected as scheduled.
The concentrations of the two main analytes in rat blood mixed 1:1 (v/v) with 2% formic acid were determined simultaneously using a qualified LC-MS/MS assay. The results for both analytes were reported in ng/mL. The calibration range was 1 to 1,000 ng/mL for Compound 1 and capsaicin in the mixed matrix. The calibration range was 5 to 1,000 ng/mL for Compound 2.
Table 1, FIG. 1, and FIG. 2 provide dose-corrected capsaicin exposure results for rats administered as described above.
Table 2, FIG. 3, and FIG. 4 provide Compound 2 exposure results for rats administered as described above.

[2] = Hydrophilicity/water solubility compared with capsaicin; format: physicochemical; conditions: than capsaicin
[3] = male, Sprague-Dawley, 1.62 mg/kg

## CCCN1CCCC[C@H]1C(=O)Nc1c(C)cccc1C [0.25% Ropivacaine, Ropivacaine]
[1]; Day 1, beginning four hours post surgery, 175 μL intraplantar infiltration, Compound 1 dose 162 μg where present, incised paw, total scores 0-24
  Guarding Score (Mean ± SEM) Day 1: 13.5 ± 1.17
[1]; Day 1, 175 μL intraplantar infiltration, Compound 1 dose 162 μg where present, p<0.05
  mean guarding scores on Day 1 compared to the 0.9% saline group: no significant changes
[1]; Predose baseline, day prior to surgery and dosing, incised paw, total scores 0-24
  Guarding Score (Mean ± SEM) Predose: 1.1 ± 0.30

## COc1cc(CNC(=O)CCCCC=CC(C)C)ccc1O [Capsaicin, 8-methyl-N-vanillyl-6-nonenamide]
In vivo; male, Sprague-Dawley, 1 mg/kg, Mean ± SD
  Tmax: 30 min
In vivo; male, Sprague-Dawley, 1 mg/kg, Median
  Tmax: 30 min
In vivo; [3]
  Tmax of capsaicin, Mean ± SD: 50.0 ± 15.5 min
  Tmax of capsaicin, Median: 60 min
In vivo; male, Sprague-Dawley, 1.62 mg/kg, Mean ± SD
  Tmax: 26.7 min
In vivo; male, Sprague-Dawley, 1.62 mg/kg, Median
  Tmax: 30 min
In vivo; 1 mg/kg
  AUC0-24 of capsaicin, Mean ± SD: 5,799 ± 1,759 (ng · min/mL)/(mg/kg)
  AUC0-24 of capsaicin, Median: 5,193 (ng · min/mL)/(mg/kg)
  Cmax of capsaicin, Mean ± SD: 110 ± 41 (ng/mL)/(mg/kg)
  Cmax of capsaicin, Median: 105 (ng/mL)/(mg/kg)

## CNCC1CCCCN1C(=O)Oc1ccc(CNC(=O)CCCC/C=C/C(C)C)cc1OC.Cl (centres unmarked) [Compound 1, (E)-2-methoxy-4-((8-methylnon-6-enamido)methyl)phenyl 2-((methylamino)methyl)piperidine-1-carboxylate hydrochloride]
[2]
  hydrophilicity/water solubility: significantly higher

## CN1CC2CCCCN2C1=O (centres unmarked) [Compound 2, 2-methylhexahydroimidazo[1,5-a]pyridin-3(2H)-one]
In vivo; [3]
  AUC0-24 of Compound 2, Mean ± SD: 24,180 ± 7,095 ng · min/mL
  AUC0-24 of Compound 2, Median: 25,930 ng · min/mL
  Cmax of Compound 2, Mean ± SD: 175 ± 48 ng/mL
  Cmax of Compound 2, Median: 196 ng/mL
  Tmax of Compound 2, Mean ± SD: 36.7 ± 19.7 min
In vivo; male, Sprague-Dawley, 1.62 mg/kg, AUC0-24 of Compound 2, Mean ± SD
  AUC(0-t): 445 ng·h/mL
In vivo; male, Sprague-Dawley, 1.62 mg/kg, AUC0-24 of Compound 2, Median
  AUC(0-t): 450 ng·h/mL
In vivo; male, Sprague-Dawley, 1.62 mg/kg, Cmax of Compound 2, Mean ± SD
  Cmax: 226 ± 37 ng/mL
In vivo; male, Sprague-Dawley, 1.62 mg/kg, Cmax of Compound 2, Median
  Cmax: 226 ng/mL
